{"source": "patent US20230390297A1", "about": "“USE OF NUCLEOTIDE SYNTHESIS INHIBITORS FOR TARGETED THERAPY IN MLL3/4 COMPASS MUTANT CANCER” (priority 2022, published 2023)", "key": {"[1]": {"tested_on": "WT and Mll3/4 KO mESCs", "assay": "RNA-seq of WT and Mll3/4 KO mESCs treated with LTX -/+ HPX", "assay_type": "cell-based, mouse", "conditions": "0.3 μM LTX or 50 μM HPX alone, 48 hours; LTX effect almost completely rescued by HPX", "experimental": "(§1) FIG. 3. […] (A) WT and Mll3/4 KO cells were treated with 0-2.5 μM lometrexol (LTX)−/+50 hypoxanthine (HPX) for 48 hours. CellTiter-Glo® luminescent cell viability assay was performed to determine the percentage of inhibition under these conditions. (B) WT and KO cells were treated with 0.3 μM LTX−/+50 μM HPX for 48 hours, and cells were harvested for RNA-seq. Differential gene expression analyses were performed with indicated comparisons. (C) Principal component analysis of RNA-seq in (B). (D) Hierarchical clustering heatmap showing differentially expressed genes in KO cells in comparison with WT cells.\n(§2) FIG. 10. Mll3/4 KO mESCs are more sensitive to purine synthesis inhibition. (A-B) WT and Mll3/4 KO cells were treated with 0-2.5 μM lometrexol (LTX) (A) or 0-5 methotrexate (MTX) (B) for 48 hours. CellTiter-Glo® luminescent cell viability assay was performed to determine the percentage of inhibition under these conditions with three different Mll3/4 KO clones included. (C) WT and Mll3/4 KO cells were treated with 0-40 μM SHIINI for 48 hours. MTT cell viability assay was performed to determine the percentage of inhibition under these conditions with three different Mll3/4 KO clones included.\nGene count tables were constructed using HTseq (56) with Ensembl gene annotations and used as input for edgeR 3.0.8 (57). Genes with Benjamini-Hochburg adjusted p-values less than were differentially expressed. Batch effects were removed using ComB at-seq on the raw read counts (58). Pathway analysis was performed with Metascape (59)."}, "[2]": {"tested_on": "MLL4 mutant colorectal cancer cells (SW480, DLD1, HCT116, RKO)", "assay": "CellTiter-Glo viability assay in MLL4 wild type and MLL4 mutant colorectal cell lines", "assay_type": "cell-based, human", "conditions": "72 hours; LTX 0-30 μM, Piericidin A 0-10 μM, Phenformin 0-30 mM"}, "[3]": {"tested_on": "Mll3/4 KO mESCs", "assay": "MTT cell viability assay in WT and Mll3/4 KO mESCs", "assay_type": "cell-based, mouse", "conditions": "0-40 μM, 48 hours; three Mll3/4 KO clones", "experimental": "as §2"}, "[4]": {"tested_on": "Mll3/4 KO mESCs", "assay": "CellTiter-Glo luminescent cell viability assay in WT and Mll3/4 KO mESCs", "assay_type": "cell-based, mouse", "conditions": "48 hours; LTX 0-2.5 μM, MTX 0-5; three Mll3/4 KO clones", "experimental": "as §1, §2"}, "[5]": {"tested_on": "CAL51 breast cancer cells", "assay": "CellTiter-Glo viability assay in CAL51 MLL4 WT, hNTD and KO cells", "assay_type": "cell-based, human", "experimental": "FIG. 17. Cells lacking of MLL4 function are selectively sensitive to de novo purine synthesis inhibition. (A) Tracer levels of glutamine (M+1) in SW1417, Caco2, RKO and HCT116 cells. (B) Labeled purine metabolite levels with 15 N glutamine tracing in SW1417, Caco2, RKO and HCT116 cells. MLL4 WT cells, blue; MLL4 mutant cells, red. (C) CellTiter-Glo® luminescent cell viability assay in CAL51 MLL4 WT, heterozygous truncation mutation (hNTD), and KO cells treated with MTX (0-1 μM). (D) CAL51 WT and MLL4KO cells were treated with 0.04, or 0.4 μM MTX in the presence of H2O, 50 μM thymidine or 50 μM inosine. CellTiter-Glo® luminescent cell viability assay was performed. (E-J) Cells were infected with lentiviruses expressing shCtrl, shGART or shPAICS. Two distinct shRNAs were included for GART and PAICS. Western blot showing the knockdown of GART and PAICS in RKO, HCT116, Caco2 and HT55 cells (E). The growth rates of HCT116 (F), RKO (G), Caco2 (H) and HT55 (I) cells with shCtrl, shGART or shPAICS were measured by cell counting, and the cell number was normalized with day 0. Colony formation of the four cell lines with GART or PAICS knockdown was performed by seeding 500 or 1000 cells in the 6 well plates and stained after 10-14 days of culture with media change every three days (J)."}}}
{"smiles": "O=c1[nH]cnc2nc[nH]c12", "note": "[HPX, hypoxanthine]", "values": [{"measurement": "gene expression change in WT and Mll3/4 KO cells", "setting": "[1]", "result": "subtle gene expression or phenotypic change"}]}
{"smiles": "[H]/N=C(/N)N/C(=N/[H])NCCc1ccccc1", "note": "[Phenformin]", "values": [{"measurement": "sensitivity of MLL4 mutant cells compared with MLL4 wild type cells (growth inhibition)", "setting": "[2]", "result": "no sensitivity difference between MLL4 WT and mutant cells"}]}
{"smiles": "C/C=C(\\C)[C@H](O)[C@H](C)/C=C(C)/C=C/C/C(C)=C/Cc1nc(OC)c(OC)c(O)c1C", "note": "[Piericidin A]", "values": [{"measurement": "sensitivity of MLL4 mutant cells compared with MLL4 wild type cells (growth inhibition)", "setting": "[2]", "result": "no sensitivity difference between MLL4 WT and mutant cells"}]}
{"smiles": "Cc1[nH]nc2c1C(c1cc(CO)cc(-c3ccccc3)c1)(C(C)C)C(C#N)=C(N)O2", "note": "(stereo not shown) [SHIN1]", "values": [{"measurement": "sensitivity of Mll3/4 KO cells compared with WT cells (percentage of inhibition, MTT)", "setting": "[3]", "result": "enhanced sensitivity"}]}
{"smiles": "CN(Cc1cnc2nc(N)nc(N)c2n1)c1ccc(C(=O)N[C@@H](CCC(=O)O)C(=O)O)cc1", "note": "[methotrexate, (2S)-2-[[4-[(2,4-diaminopteridin-6-yl)methyl-methylamino]benzoyl]amino]pentanedioic acid]", "values": [{"measurement": "sensitivity of Mll3/4 KO cells compared with WT cells (percentage of inhibition of viability)", "setting": "[4]", "result": "enhanced sensitivity"}, {"measurement": "rescue of cytotoxic effect on MLL4KO cells by nucleosides", "setting": "[5]; 0.04 or 0.4 μM MTX with 50 μM thymidine or 50 μM inosine", "result": "rescued by inosine not thymidine"}, {"measurement": "sensitivity of CAL51 cells with compromised MLL4 functions (MLL4hNTD, MLL4KO) compared with WT", "setting": "[5]; MTX 0-1 μM", "result": "elevated MTX sensitivity"}]}
